From patent US20250084097A1, “MACROCYCLIC AMIDE COMPOUNDS AND APPLICATION THEREOF” (Medshine Discovery Inc., priority 2021, published 2025) come the findings set out here.

The test system of the experiment is Ba/F3-FL-EGFR (del19-T790M-C797S) cells. In words: In vivo efficacy, Ba/F3-FL-EGFR-Del19-T790M-C797S cell homograft tumor model. Also on record: species or system mouse. The note with it: for Relative tumor proliferation rate T/C / Tumor growth inhibition rate TGI: Day 10. As to the method: Ba/F3-FL-EGFR (del19-T790M-C797S) cell line was cultured in RPMI1640 medium (Viva Cell)+10% fetal bovine serum (Viva Cell)+1% double-antibody (Penicillin Streptomycin solution, Gibco, USA) at 37° C., 5% CO2, and passaged 2-3 times a week. When the cell saturation was 80%-90%, cells were collected, counted and inoculated. When the cells in the logarithmic growth phase reached the required number for the assay, the cells were collected, and centrifuged at 1000 rpm for 5 min to remove the supernatant. The cells were resuspended with medium, and counted using a cell counter. According to the counting results, the original solution was diluted into a cell suspension with a concentration of 1*10^7 viable cells/mL, and the cell viability was 98.77%, P17 generation. The diluted cell suspension and matrix gel were diluted in a 1:1 ratio. After mixing well and placing on ice, the suspension was aspirated with a 1 mL sterile insulin syringe, and each mouse was subcutaneously inoculated with 0.2 mL of cell suspension in the right axilla. That is, each mouse was inoculated with 1*10^6 Ba/F3-FL-EGFR (del19-T790M-C797S) cells.
After the inoculation was completed, the tumor growth status was observed daily. When the average tumor volume reached approximately 100˜150 mm^3, the mice were randomly divided into groups according to tumor volume.
Dosage according to mouse body weight: 10 μL/g. If the body weight decreases by more than 20%, the dosing regimen was adjusted accordingly.
The formulation and any modifications of this assay protocol were evaluated and approved by the Laboratory Animal Welfare Ethics Committee of the testing institution. The health status and death of animals were checked every day. Routine inspections included tumor growth, activity, diet, body weight, eyes, hair and other abnormal behaviors of animals. Tumor volume and body weight were measured three times a week (Monday, Wednesday and Friday). The tumor volume was measured with a vernier caliper, and the formula was TV=0.5 a×b^2, where a is the long diameter of a tumor and b is the short diameter of a tumor.
Statistical analysis included the mean (Mean) and standard error (SEM) of tumor volume at each time point for each group. Statistical analysis was performed to evaluate differences between groups based on the data on the 10th day after administration. One way ANOVA post hoc test and Tamhane test were used to compare whether there was a significant difference in tumor volume between the treatment group and the control group. p<0.05 meaned a significant difference. Drug efficacy evaluation indicators included tumor volume and tumor weight to examine whether tumor growth was delayed, inhibited or cured. The anti-tumor efficacy of compounds was evaluated using the relative tumor proliferation rate T/C (%) or the tumor growth inhibition rate TGI (%). […] In principle, the evaluation criteria were: T/C (%) >40% or TGI (%) <40% represents ineffective; T/C (%)≤40% and p<0.05, or TGI (%)≥40% and p<0.05 represents effective.

[1] abbreviates: 10 mg/kg/bid, day 0 after administration.
The mark [2] stands for this setting: 10 mg/kg/bid, day 3 after administration.
Where [3] appears, read: 10 mg/kg/bid, day 5 after administration.
Where [4] appears, read: 10 mg/kg/bid, day 7 after administration.
The mark [5] stands for this setting: 10 mg/kg/bid, day 10 after administration.
The mark [6] stands for this setting: 25 mg/kg/bid, day 0 after administration.
Where [7] appears, read: 25 mg/kg/bid, day 3 after administration.
Where [8] appears, read: 25 mg/kg/bid, day 5 after administration.
Where [9] appears, read: 25 mg/kg/bid, day 7 after administration.
[10] abbreviates: 25 mg/kg/bid, day 10 after administration.

Take `Cc1cc2cc(n1)-c1cnn(C)c1OCCC[C@@H](C)CN1/C(=N/C2=O)Nc2ccc(N=S(C)(C)=O)c(Cl)c21` [WX-019]: the “Relative tumor proliferation rate T/C” value reads like this: (10 mg/kg/bid) 8%; (25 mg/kg/bid) 7%. Further, the “Tumor growth inhibition rate TGI” value is, setting by setting: (10 mg/kg/bid) 101%; (25 mg/kg/bid) 103%. Moreover, the Average tumor volume runs as follows: under setting [1], 113 mm^3; under setting [2], 133 mm^3; under setting [3], 140 mm^3; under setting [4], 148 mm^3; under setting [5], 106 mm^3; under setting [6], 113 mm^3. Besides, the Average tumor volume came out at 120 mm^3 under setting [7], 94 mm^3 under setting [8], 130 mm^3 under setting [9] and 82 mm^3 under setting [10].

Consider `Cc1cc2cc(n1)-c1cnn(C)c1OC[C@H]1CC[C@H](C1)CN1/C(=N/C2=O)Nc2ccc(N=S(C)(C)=O)cc21` (single isomer, unassigned) [WX-027A], for which the “Relative tumor proliferation rate T/C” value is listed as 14% (10 mg/kg/bid) and 7% (25 mg/kg/bid). Also, the “Tumor growth inhibition rate TGI” value was found to be 94% (10 mg/kg/bid) and 102% (25 mg/kg/bid). For the same compound, the Average tumor volume is 113 mm^3 under setting [1]; 123 mm^3 under setting [2]; 111 mm^3 under setting [3]; 183 mm^3 under setting [4]; 179 mm^3 under setting [5]; 112 mm^3 under setting [6]. For the same compound, the Average tumor volume by setting is: under setting [7], 105 mm^3; under setting [8], 96 mm^3; under setting [9], 108 mm^3; under setting [10], 86 mm^3.
